According to ChEMBL document CHEMBL1201862, “PubChem BioAssay data set” (2004):
Activity calls are given as the source filed them.

Columns and labels:
[1] = Concentration-dependent survival of SW480 colon cancer line, luminescence detection with CellTiter-Glo, half-maximal inhibitory concentration (AID 1117338); type: functional
[2] = RKO cell viability reduction, dose response, CellTiter-Glo luminescence (AID 1117322); type: functional
[3] = cytotoxicity toward HCT116 cells – cell-based, CellTiter-Glo luminescence, IC50, dose response (AID 1117332); type: functional; conditions: HCT-116
[4] = SNU-C1 cell viability reduction, dose response, CellTiter-Glo luminescence (AID 1117323); type: functional, cell-based
[5] = cytotoxicity toward Colo320 cells – cell-based, CellTiter-Glo luminescence, IC50, dose response (AID 1117334); type: functional; conditions: COLO 320
[6] = cytotoxicity toward HT-29 cells – cell-based, CellTiter-Glo luminescence, IC50, dose response (AID 1117330); type: functional
[7] = CellTiter-Glo luminescent dose response of DLD-1 viability loss (AID 1117352); type: functional
[8] = HCT116 cell viability decrease, GSK3B pretreatment – CellTiter-Glo, IC50, dose response (AID 1117339); type: functional; conditions: HCT-116
Protein skinhead-1 = target: T1, Protein skinhead-1 (Caenorhabditis elegans, UniProt P34707); type: functional
T1 sequence (P34707 whole entry): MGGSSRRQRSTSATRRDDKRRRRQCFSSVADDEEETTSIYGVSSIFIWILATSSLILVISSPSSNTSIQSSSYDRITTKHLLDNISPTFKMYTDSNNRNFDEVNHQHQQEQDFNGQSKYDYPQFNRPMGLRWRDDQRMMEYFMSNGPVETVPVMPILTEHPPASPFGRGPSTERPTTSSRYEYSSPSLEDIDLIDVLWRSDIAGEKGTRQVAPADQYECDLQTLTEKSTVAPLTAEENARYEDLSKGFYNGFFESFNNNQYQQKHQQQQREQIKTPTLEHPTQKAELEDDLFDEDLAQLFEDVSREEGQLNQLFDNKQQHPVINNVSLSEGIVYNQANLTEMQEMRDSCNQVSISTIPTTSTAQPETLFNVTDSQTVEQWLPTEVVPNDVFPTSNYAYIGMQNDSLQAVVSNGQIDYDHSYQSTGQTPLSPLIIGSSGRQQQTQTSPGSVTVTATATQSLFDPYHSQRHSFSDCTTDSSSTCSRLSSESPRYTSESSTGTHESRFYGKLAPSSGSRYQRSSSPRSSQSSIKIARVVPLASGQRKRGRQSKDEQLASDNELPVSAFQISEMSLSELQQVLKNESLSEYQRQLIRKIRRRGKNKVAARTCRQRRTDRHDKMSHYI

[9] = target: T2, Heat shock factor protein 1 (Mus musculus, UniProt P38532); assay: inhibition of MG132-induced HSE-luciferase signal, confirmation, cell-based, NIH3T3, luminescence, dose retest (AID 2382); type: functional;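 note: NIH3T3 fibroblasts with HSF1-driven luciferase reporter stressed by proteasome inhibitor MG132; luminescence from HSF1-driven luciferase expression after 8 hours of MG132 stress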
T2 sequence (P38532 whole entry): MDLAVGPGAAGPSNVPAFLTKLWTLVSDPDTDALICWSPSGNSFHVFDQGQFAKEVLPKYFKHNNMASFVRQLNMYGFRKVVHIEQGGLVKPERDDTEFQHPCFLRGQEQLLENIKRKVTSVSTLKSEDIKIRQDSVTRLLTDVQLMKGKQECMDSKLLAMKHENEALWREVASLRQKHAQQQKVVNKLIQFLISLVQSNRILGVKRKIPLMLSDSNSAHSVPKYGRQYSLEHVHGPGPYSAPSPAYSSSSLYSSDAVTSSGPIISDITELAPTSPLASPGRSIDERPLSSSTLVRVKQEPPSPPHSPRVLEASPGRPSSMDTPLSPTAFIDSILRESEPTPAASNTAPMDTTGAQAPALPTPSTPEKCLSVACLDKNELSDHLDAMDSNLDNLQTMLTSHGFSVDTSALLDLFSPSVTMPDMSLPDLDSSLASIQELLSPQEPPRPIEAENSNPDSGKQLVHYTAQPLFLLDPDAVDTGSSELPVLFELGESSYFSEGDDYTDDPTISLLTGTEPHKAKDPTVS

[10] = target: T3, Long-chain-fatty-acid--AMP ligase FadD28 (Mycobacterium tuberculosis, UniProt P9WQ59); assay: Fluorescence polarization aasay to screen for inhibitors that compete for the binding of FadD28 to a bisubstrate Measured in Biochemical System Using Plate Reader - 2147-01_Inhibitor_Dose_CherryPick_Activity.; type: functional, Mycobacterium tuberculosis H37Rv
T3 sequence (P9WQ59 whole entry): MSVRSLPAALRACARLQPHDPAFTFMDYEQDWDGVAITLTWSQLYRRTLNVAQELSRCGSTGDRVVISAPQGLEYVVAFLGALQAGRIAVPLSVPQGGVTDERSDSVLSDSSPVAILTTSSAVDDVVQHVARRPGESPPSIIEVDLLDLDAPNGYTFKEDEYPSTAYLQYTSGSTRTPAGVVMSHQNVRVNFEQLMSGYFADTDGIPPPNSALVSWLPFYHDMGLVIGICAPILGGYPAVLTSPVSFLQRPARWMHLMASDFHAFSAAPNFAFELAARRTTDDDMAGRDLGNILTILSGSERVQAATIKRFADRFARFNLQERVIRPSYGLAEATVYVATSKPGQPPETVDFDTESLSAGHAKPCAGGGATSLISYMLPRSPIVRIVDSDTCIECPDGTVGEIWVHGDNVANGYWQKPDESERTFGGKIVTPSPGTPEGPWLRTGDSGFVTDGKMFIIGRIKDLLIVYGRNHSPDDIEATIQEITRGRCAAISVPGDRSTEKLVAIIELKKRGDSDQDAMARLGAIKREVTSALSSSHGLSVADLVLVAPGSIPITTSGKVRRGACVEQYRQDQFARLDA

[11] = test system: Streptococcus sp. 'group A'; assay: growth inhibition of control SK(-) GAS strain, dose response, counter-screen for streptokinase expression inhibitor project, luminescence, kanamycin, BacTiterGlo, confirmation (AID 1900); type: functional, organism-based
Streptokinase A = target: T4, Streptokinase A (Streptococcus pyogenes serotype M1, UniProt P10520); assay: S. pyogenes streptokinase expression inhibitors, potency, dose response, plasminogen activation absorbance, OD405 (AID 1914); type: functional, Streptococcus pyogenes M1 GAS;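 note: secreted streptokinase activity via plasminogen activation per viability signal from cell pellet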
T4 sequence (P10520 whole entry): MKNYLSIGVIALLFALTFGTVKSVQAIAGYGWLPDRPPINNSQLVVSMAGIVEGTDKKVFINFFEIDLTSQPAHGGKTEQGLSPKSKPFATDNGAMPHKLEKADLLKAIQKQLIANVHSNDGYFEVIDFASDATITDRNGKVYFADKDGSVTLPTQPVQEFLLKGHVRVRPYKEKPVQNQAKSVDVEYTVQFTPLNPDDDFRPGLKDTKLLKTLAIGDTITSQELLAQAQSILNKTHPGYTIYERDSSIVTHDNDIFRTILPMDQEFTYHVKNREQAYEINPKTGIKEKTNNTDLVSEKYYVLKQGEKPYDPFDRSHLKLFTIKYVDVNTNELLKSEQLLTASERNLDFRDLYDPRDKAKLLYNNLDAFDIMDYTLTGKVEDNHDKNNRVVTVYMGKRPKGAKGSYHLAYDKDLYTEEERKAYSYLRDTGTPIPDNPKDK

Streptococcus = assay: Group A Streptococcus viability loss, dose response, counter-screen for streptokinase expression inhibitor project, luminescence, BacTiterGlo (AID 1915); type: functional, organism-based;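 note: potency for reduction of bacterial viability or growth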
[12] = target: T5, High affinity choline transporter 1 (Homo sapiens, UniProt Q9GZV3); assay: CHT inhibitors, dose response, cell-based, 5-point CRC, membrane potential dye (AID 504840); type: functional
T5 sequence (Q9GZV3 whole entry): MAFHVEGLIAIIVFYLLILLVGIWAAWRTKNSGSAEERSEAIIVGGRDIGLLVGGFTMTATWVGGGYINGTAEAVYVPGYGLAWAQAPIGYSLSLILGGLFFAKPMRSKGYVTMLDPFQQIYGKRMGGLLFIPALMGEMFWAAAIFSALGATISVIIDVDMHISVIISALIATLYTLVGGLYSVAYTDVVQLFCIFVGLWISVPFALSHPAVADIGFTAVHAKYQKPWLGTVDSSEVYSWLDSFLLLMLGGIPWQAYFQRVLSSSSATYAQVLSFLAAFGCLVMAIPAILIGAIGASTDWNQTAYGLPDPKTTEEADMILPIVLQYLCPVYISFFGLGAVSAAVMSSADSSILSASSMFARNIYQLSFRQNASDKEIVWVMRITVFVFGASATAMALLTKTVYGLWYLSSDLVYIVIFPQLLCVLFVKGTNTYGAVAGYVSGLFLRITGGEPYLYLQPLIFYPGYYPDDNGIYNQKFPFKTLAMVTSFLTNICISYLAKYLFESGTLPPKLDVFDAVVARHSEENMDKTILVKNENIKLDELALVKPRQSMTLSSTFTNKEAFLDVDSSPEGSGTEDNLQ

[13] = target: NAD-dependent protein deacylase sirtuin-5, mitochondrial (Homo sapiens, UniProt Q9NXA8); assay: SIRT5 desuccinylase inhibitors, dose response, biochemical, fluorescence imaging, cherry-pick, set 5 (AID 720591);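 note: desuccinylation of succinyl peptide AMC substrate read as fluorescence after trypsin release; potency of inhibitors that lower fluorescence and may act on trypsin instead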
Sequence of NAD-dependent protein deacylase sirtuin-5, mitochondrial (Q9NXA8 whole entry): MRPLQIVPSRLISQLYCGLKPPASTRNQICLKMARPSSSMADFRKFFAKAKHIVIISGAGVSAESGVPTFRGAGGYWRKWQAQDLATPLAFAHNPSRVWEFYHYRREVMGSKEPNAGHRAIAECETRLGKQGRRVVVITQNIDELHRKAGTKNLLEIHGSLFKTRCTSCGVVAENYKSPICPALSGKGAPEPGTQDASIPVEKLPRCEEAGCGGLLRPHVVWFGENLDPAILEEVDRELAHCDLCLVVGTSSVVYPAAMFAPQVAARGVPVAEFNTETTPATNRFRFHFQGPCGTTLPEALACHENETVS

[14] = Shn3 3'UTR reporter inhibitors, dose response, cell-based, Clone20 osteoblasts, firefly luciferase, cherry-picked (AID 624132); type: functional;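 note: firefly luciferase luminescence from reporter carrying the Shn3 3'UTR in osteoblasts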
P388/ADR = assay: cells; type: functional; conditions: Mus musculus
[15] = HepG2 cell cytotoxicity, dose response, cytotoxicity control for Shn3 inhibitor project, CellTiter-Glo, cherry-picked (AID 624134); type: functional, cell-based
[16] = control 3'UTR Renilla luciferase suppression, dose response, counter-screen for Shn3 inhibitor project, cell-based, Clone20-Shn3RL, cherry-picked (AID 624133); type: functional
SN12K1 = assay: cells; type: functional; conditions: Homo sapiens
P388 = assay: cells; type: functional; conditions: Mus musculus
[17] = inhibitors of HIV Env-driven cell fusion, dose response, cherry-pick (AID 652057); type: functional, cell-based
[18] = CEM21 lymphoblast cell cytotoxicity, dose response, cytotoxicity control for viral fusion inhibitor project, CellTiter-Glo luminescence, cherry-picked (AID 652042); type: functional, cell-based;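 note: potency for signal decrease meaning cytotoxicity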
Paired box protein Pax-8 = Paired box protein Pax-8 (Homo sapiens, UniProt Q06710); assay: inhibitors of PAX8-driven TPO luciferase reporter, dose response, RMG-I cells, cherry-pick (AID 687027); type: functional, cell-based;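 note: luciferase reporter driven by Pax8 target thyroperoxidase promoter measured by SteadyGlo luminescence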
Sequence of Paired box protein Pax-8 (Q06710 whole entry, the tested form may be a part): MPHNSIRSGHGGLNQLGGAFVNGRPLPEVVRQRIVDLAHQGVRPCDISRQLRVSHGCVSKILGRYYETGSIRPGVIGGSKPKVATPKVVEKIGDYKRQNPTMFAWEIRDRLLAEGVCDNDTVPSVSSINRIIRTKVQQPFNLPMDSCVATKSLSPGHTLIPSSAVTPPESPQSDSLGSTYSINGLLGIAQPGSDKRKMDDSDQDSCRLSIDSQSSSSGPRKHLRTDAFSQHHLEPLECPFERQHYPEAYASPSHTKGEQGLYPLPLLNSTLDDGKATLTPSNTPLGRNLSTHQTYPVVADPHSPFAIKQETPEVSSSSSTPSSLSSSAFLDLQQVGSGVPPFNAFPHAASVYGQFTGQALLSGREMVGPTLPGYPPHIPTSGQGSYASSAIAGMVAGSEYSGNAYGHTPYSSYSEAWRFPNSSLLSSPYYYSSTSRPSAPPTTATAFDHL

[19] = off-target signal loss in HeLa-CEM21 co-culture – HeLa F-luc CTL cells, cherry-picked, counter-screen for HIV-1 Env fusion inhibitor project, dose response (AID 652040); type: functional, cell-based;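 note: potency for signal decrease marking cytotoxic or nonspecific inhibition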
Mu-type opioid receptor = Mu-type opioid receptor (Homo sapiens, UniProt P35372); type: functional, cell-based;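 note: U2OS cells with beta-arrestin recruitment to OPRM1 by beta-gal complementation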
Sequence of Mu-type opioid receptor (P35372 whole entry): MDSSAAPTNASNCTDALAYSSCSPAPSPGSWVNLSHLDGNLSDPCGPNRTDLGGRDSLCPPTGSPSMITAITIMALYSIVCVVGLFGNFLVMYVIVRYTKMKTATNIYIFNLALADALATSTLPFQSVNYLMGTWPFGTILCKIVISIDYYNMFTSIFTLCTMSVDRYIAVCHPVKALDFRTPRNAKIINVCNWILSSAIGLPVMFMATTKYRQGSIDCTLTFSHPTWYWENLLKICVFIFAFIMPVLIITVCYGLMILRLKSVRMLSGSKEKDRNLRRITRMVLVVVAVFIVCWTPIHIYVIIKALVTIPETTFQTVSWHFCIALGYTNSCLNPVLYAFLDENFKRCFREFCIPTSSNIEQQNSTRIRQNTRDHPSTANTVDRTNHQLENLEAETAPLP

[20] = target: 5-hydroxytryptamine receptor 2A (Mus musculus, UniProt P35363); type: functional, cell-based;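 note: CHO-K1 cells with tagged receptor and beta-arrestin; agonist potency measured as compound-induced activation of the receptor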
Sequence of 5-hydroxytryptamine receptor 2A (P35363 whole entry, the tested form may be a part): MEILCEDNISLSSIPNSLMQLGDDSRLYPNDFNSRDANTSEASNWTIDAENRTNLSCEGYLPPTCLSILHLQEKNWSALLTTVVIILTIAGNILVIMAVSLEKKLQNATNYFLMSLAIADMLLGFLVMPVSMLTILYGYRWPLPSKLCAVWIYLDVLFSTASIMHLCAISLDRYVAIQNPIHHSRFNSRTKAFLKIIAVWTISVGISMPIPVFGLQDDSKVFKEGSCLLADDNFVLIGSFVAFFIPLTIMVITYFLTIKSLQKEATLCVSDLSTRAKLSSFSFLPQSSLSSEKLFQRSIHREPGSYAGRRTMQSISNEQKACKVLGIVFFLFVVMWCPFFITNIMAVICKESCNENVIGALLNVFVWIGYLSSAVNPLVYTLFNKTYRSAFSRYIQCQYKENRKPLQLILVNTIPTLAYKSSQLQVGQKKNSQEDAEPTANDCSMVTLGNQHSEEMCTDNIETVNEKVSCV

[21] = inhibitors of clade B AD8 Env fusion, dose response, cell-based, cherry-pick (AID 652062); type: functional;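 note: luciferase signal from cell-cell fusion driven by HIV-1 clade B AD8 Env; potency is for inhibitors of fusion seen as a drop in luminescence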
[22] = P. falciparum Dd2 growth inhibitors, dose response, SYBR Green, cherry-picked samples (AID 1159567); type: functional, cell-based

## CCCCCCOC(=O)c1cccnc1
[1]
  IC50: > 20 µM (inactive)
[2]
  IC50: > 20 µM (inactive)
[3]
  IC50: > 20 µM (inactive)
[4]
  IC50: > 20 µM (inactive)
[5]
  IC50: > 20 µM (inactive)
[6]
  IC50: > 20 µM (inactive)
[7]
  IC50: > 20 µM (inactive)
[8]
  IC50: > 20 µM (inactive)

## O=C(Nc1ccc(CN2CCOCC2)cc1)c1cc2ccccc2o1
Protein skinhead-1
  IC50: 15.4 µM (active)

## CC(C)OC(=O)CSc1nnc(SCc2cccc3ccccc23)s1
Protein skinhead-1
  IC50: > 100 µM (inactive)

## Cc1cccc(NC(=O)CN2C(=O)N/C(=C/c3cc(C)n(C(C)C)c3C)C2=O)c1
[9]
  EC50: > 195 µM (not active)
[10]
  AC50: 7.01 µM (active)

## CCn1cc(CN2CCC(C(=O)Nc3ccc(Oc4cccnc4)cc3)CC2)cn1
[11]
  EC50: > 150 µM (not active)
Streptokinase A
  EC50: > 150 µM (not active)
Streptococcus
  EC50: > 150 µM (not active)
[10]
  AC50: 37.3 µM (active)

## Cc1nn(-c2ccccc2)c2nc(O)cc(C(F)(F)F)c12
[12]
  IC50: 7.1 µM (active)
[13]
  AC50: > 30 µM (inactive)

## CN(CC(=O)Nc1cccc(Cl)c1)S(=O)(=O)c1ccc2c(c1)n(C)c(=O)c(=O)n2C
[13]
  AC50: > 30 µM (inactive)

## O=C1NC2C(=CC(O)C(O)C2O)c2cc3c(cc21)OCO3 (configuration not stated)
[14]
  AC50: 2.22 µM (active)
P388/ADR
  GI50: 0.0984 µM (active)
[15]
  AC50: 53.9 µM (active)
[16]
  AC50: 3.82 µM (active)
SN12K1
  GI50: 0.234 µM (active)
P388
  GI50: 0.115 µM (active)
Protein skinhead-1
  IC50: 64.3 µM (inactive)
[17]
  AC50: 2.38 µM (active)
[18]
  AC50: 0.738 µM (active)
Paired box protein Pax-8
  AC50: 0.325 µM (active)
[19]
  AC50: 3.78 µM (active)

## Fc1ccc2cc(-c3ccccc3)ncc2c1
Protein skinhead-1
  IC50: > 100 µM (inactive)

## COc1cccc(C(=O)NNC(=O)CCN2CCN(c3ccccc3)CC2)c1
Mu-type opioid receptor
  EC50: 92.4 µM (inactive)
[20]
  EC50: 0.427 µM (active)

## C[C@@H]1CN([C@H](C)CO)S(=O)(=O)c2ccc(C#Cc3ccccc3)cc2O[C@H]1CN(C)C(=O)C1CC1
[17]
  AC50: 2.66 µM (active)
[18]
  AC50: 44.3 µM (active)
[21]
  AC50: 11.1 µM (active)
[22]
  AC50: 7.33 µM (active)
